# Measurements: patent US12239654B2, “Compounds and methods for treating neurological and cardiovascular conditions” (Astrocyte Pharmaceuticals, Inc., priority 2016, dated 2025)
# Tests used:
# [1] = Brain binding determination by brain homogenate ultrafiltration, mouse; format: in vitro ADME; conditions: 37° C., ultrafiltration; for fraction unbound at 60 min, 1 μM: male, CD-1, mouse, brain homogenate, pH 7.4, mouse brain homogenate
# Description: (§1) Animals and Tissue Preparation: Plasma from male CD-1 mice was obtained from BioreclamationIVT (Westbury, NY) and stored at −80° C. until use. Male CD-1 mouse brains were obtained from BioreclamationIVT (Westbury, NY).
# Brains were weighed and homogenized with 1:9 phosphate-buffered saline, pH 7.4 using an Omni tissue homogenizer. Brains from four mice were homogenized, pooled and mixed to form one sample.
# Pooled homogenized brains were pre-warmed for 60 minutes in a humidified, 5% CO2 incubator maintained at 37° C. […] Spiked pooled brain homogenates were placed on a Nutator mixer in a humidified, 5% CO2 incubator at 37° C. for 60 minutes. After 60 minutes, three 800 μL aliquots of each sample were added to Centrifree centrifugal filters. The filters were subjected to centrifugation at 2900 rpm for 10 minutes at 37° C. Aliquots of residual brain homogenate and ultrafiltrate were collected for bioanalysis.
# (§2) Plasma and brain concentrations of MRS4322 and MRS5698 in spiked plasma, brain homogenates and associated ultrafiltrates were determined by LC-MS/MS utilizing tolbutamide as an internal standard. […] The following tables outline the LC and MS/MS conditions employed (Tables 7 and 8).
# (§3) For each tissue matrix, standard curves were created and LLOQ/ULOQ concentrations determined. The calibration range for the MRS4322 and MRS5698 plasma concentration standard curves was 400-1200 nM. The calibration range for MRS4322 and MRS5698 plasma ultrafiltrate standard curves was 100-1200 nM. The calibration range for MRS4322 brain homogenate and brain homogenate ultrafiltrate standard curves were 400-1200 nM and 100-1200 nM, respectively. The calibration range for MRS5698 brain homogenate and brain homogenate ultrafiltrate standard curves were 400-1200 nM and 1-500 nM, respectively.
# [2] = Plasma binding determination by plasma ultrafiltration, mouse; format: in vitro ADME; conditions: for fraction unbound at 60 min, 1 μM: male, CD-1, mouse, plasma
# Description: as §1
# Plasma ultrafiltrate blank samples were prepared by thawing frozen plasma and then pre-warming plasma in a humidified 5% CO2 chamber at 37° C. for 60 minutes. Aliquots of 800 μL were transferred to Centrifree Centrifugal Filters (Ultracel regenerated cellulose (NMWL 30,000 amu) Lot R5JA31736) and centrifuged at 2900 RPM at 37° C. for 10 minutes; plasma water filtrates were collected and used in preparation of standards, blanks and QC standards.
# Plasma samples were pre-warmed for 60 minutes in a humidified, 5% CO2 incubator maintained at 37° C. […] Spiked plasma samples were incubated on a rotary mixer in a humidified 5% CO2 chamber at 37° C. for a minimum of 60 minutes. After 60 minutes, three 800 μL aliquots of each sample were added to Centrifree centrifugal filters. The filters were subjected to centrifugation at 2900 rpm for 10 minutes at 37° C. Three 100 μL aliquots of residual plasma were collected along with ultrafiltrate for bioanalysis.
# as §2, §3
# [3] = biological target: T1, mouse A3 adenosine receptor (Mus musculus, UniProt Q61618); assay: Competition binding versus [^3H]NECA at mouse A3 receptors expressed in CHO cells
# T1 construct: expressed in transfected cells; whole cells for cAMP
# T1 sequence (Q61618 1-319): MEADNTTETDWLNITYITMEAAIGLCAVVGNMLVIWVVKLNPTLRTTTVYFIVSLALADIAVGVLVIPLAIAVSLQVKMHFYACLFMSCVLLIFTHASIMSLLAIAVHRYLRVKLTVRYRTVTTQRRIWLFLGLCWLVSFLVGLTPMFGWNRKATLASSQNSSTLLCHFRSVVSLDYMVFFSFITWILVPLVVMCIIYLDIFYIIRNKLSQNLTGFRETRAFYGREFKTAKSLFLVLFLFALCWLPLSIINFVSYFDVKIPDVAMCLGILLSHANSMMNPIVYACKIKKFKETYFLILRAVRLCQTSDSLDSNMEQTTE
# [4] = Stability of MRS2365 incubated in phosphate-buffered saline; format: physicochemical
# [5] = Pharmacokinetics of MRS4322 following intraperitoneal administration of MRS2365 to mice; format: in vivo; conditions: for Plasma Concentration Mean / Plasma Concentration by Subject / Brain Concentration Mean / Brain Concentration by Subject: analyte MRS4322, mice, MRS2365 0.24 mg/kg ip; for Plasma Concentration by Subject / Brain Concentration by Subject: subjects A-C
# Description: Animals: Female C576BL/6J mice weighing approximately 0.02 Kg were used for this study, supplied by the University of Texas Health Sciences Center (San Antonio, TX). All studies were conducted under approved University of Texas Health Sciences Center IACUC protocols.
# Drug Administration: MRS2365 was solubilized in phosphate-buffered saline and then diluted in phosphate-buffered saline to prepare dosing solution. Final dosing solution concentration of MRS2365 was 100 μM. A 100 μL volume of dosing solution was administered intraperitoneally to each mouse per 20 gram body weight; MRS2365 was administered intraperitoneally at 0.5 μmol/kg or 0.24 mg/kg. Three mice were administered MRS2365 for each sampling timepoint.
# Tissue Sampling: Blood and brain samples were obtained at 0, 0.083, 0.25, 0.5, 1, 2 and 8 hours post-dose. At each timepoint, mice (3/timepoint) were euthanized in a […] chamber. Whole blood was obtained by cardiac puncture into Microtainer tubes containing heparin and immediately centrifuged for preparation of plasma; plasma was stored at −80° C. At each timepoint, whole brain samples were obtained by decapitation, rinsed in ice-cold phosphate-buffered saline and weighed. Brain samples were then immediately flash-frozen in liquid nitrogen and stored at −80° C.
# The following table outlines the LC and MS/MS conditions employed:
# The calibration range for the MRS4322 plasma concentration standard curve was 2.26-241 ng/mL. The calibration range for MRS4322 brain concentrations was 2.35-242 ng/mL.
# For bioanalysis of brain concentrations of MRS4322, brain samples were homogenized in ice-cold phosphate-buffered saline in a 4× dilution. Aliquots of the resulting diluted brain homogenate were treated with acetonitrile and analyzed by LC-MS/MS. Because of the 4× homogenate dilution, the calibration range of the MRS4322 brain standard curve was translated to 9.40-968 ng/gm. In several samples, MRS4322 were detectable but fell below the brain LLOQ of 9.40 ng/gm but were above background; in these cases the final reported brain concentration was extrapolated based on MS peak heights.
# [6] = read-out: Fraction Unbound Mean
# [7] = mouse plasma, 1 μM, 37° C., ultrafiltration, read-out: Fraction Unbound Mean
smiles,measurement,setting,value
"CNC(=O)[C@H]1O[C@@H](n2cnc3c(NCc4cccc(I)c4)nc(Cl)nc32)[C@H](O)[C@@H]1O [Cl-IB-MECA, 2-Chloro-N^6-(3-iodobenzyl)-adenosine-5′-N-methyluronamide, reference compound]","fraction unbound at 60 min, 1 μM",[1]; [6],0.002
same,"fraction unbound at 60 min, 1 μM",[2]; [7],0.002
same,difference in affinity of Cl-IB-MECA and MRS4322 at mouse A3 receptor,[3]; Cl-IB-MECA vs MRS4322,"approximately 25,000 fold"
CSc1nc(N)c2ncn([C@H]3[C@H](O)[C@H](O)[C@]4(COP(=O)(O)OP(=O)(O)O)C[C@H]34)c2n1 [MRS2365],stability when incubated in phosphate-buffered saline,[4],completely stable
same,metabolism following intraperitoneal administration to mice,"[5]; MRS2365 0.5 μmol/kg ip, comparison with equimolar MRS4322",rapidly and completely metabolized to MRS4322
CSc1nc(N)c2ncn([C@H]3[C@H](O)[C@H](O)[C@]4(CO)C[C@H]34)c2n1 [MRS4322],"fraction unbound at 60 min, 1 μM",[1]; read-out: % Bound Mean (converted),0.13
same,"fraction unbound at 60 min, 1 μM",[1]; [6],0.13
same,% Bound Mean,"[1]; mouse brain homogenate, 1 μM",87.0%
same,Fraction Unbound Mean,"[1]; mouse brain homogenate, 1 μM",0.130
same,"fraction unbound at 60 min, 1 μM","[2]; mouse plasma, 1 μM, 37° C., ultrafiltration, read-out: % Bound Mean (converted)",0.742
same,"fraction unbound at 60 min, 1 μM",[2]; [7],0.742
same,fraction available to interact with the A3 receptor relative to Cl-IB-MECA,"[2]; mouse models, from unbound fractions in plasma and brain",at least 1000 fold
same,Fraction Unbound Mean,"[2]; mouse plasma, 1 μM, 37° C., ultrafiltration",0.74
same,Plasma Concentration Mean,[5]; 0 h,BLQ
same,Plasma Concentration by Subject,[5]; 0 h,BLQ
same,Brain Concentration Mean,[5]; 0.083 h,BLQ
same,Brain Concentration by Subject,[5]; 0.083 h,BLQ
same,Brain Concentration Mean,[5]; 1 h,BLQ
same,Brain Concentration by Subject,[5]; 1 h,BLQ
same,Brain Concentration Mean,[5]; 2 h,BLQ
same,Brain Concentration by Subject,[5]; 2 h,BLQ
same,Brain Concentration Mean,[5]; 8 h,BLQ
same,Plasma Concentration Mean,[5]; 8 h,BLQ
same,Brain Concentration by Subject,[5]; 8 h,BLQ
same,Plasma Concentration by Subject,[5]; 8 h,BLQ
same,Kp,"[5]; female, C57BL/6J, mouse, MRS4322 after MRS2365 ip to mice, based on mean Cmax concentrations in plasma and brain, read-out: brain/plasma ratio of total drug",~0.1
same,Ki,"[3]; read-out: Ki ± SEM, Mouse A3R, [^3H]NECA, CHO cell membrane preparations, [^3H]NECA (10 nM)",4.94 ± 0.974 µM
